These results are taken from patent US20230286973A1, “PROTEIN SECRETION INHIBITORS” (KEZAR LIFE SCIENCES, priority 2020, published 2023).

Each structure is given as a SMILES string. pEC50, pIC50: −log10 of the molar value.

For data set [1], the system named is PD1-ss+10aa/Gaussia Luciferase. In words: Dox-Induced PD1-ss-Gluc Assay. Type of data set: cell-based. The settings on record: 24 hr Dox induction; 293FRT/TO cells; mean; read-out: 24 hr Dox Inducible PD1ssGluc 293FRT/TO: Mean IC50. The gist of the method:
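Compounds were added in DMSO/media with doxycycline and incubated at 37 °C, 5% CO2, on 293 T-REx cells plated one day earlier. These cells stably express, under tetracycline-regulated control, a Gaussia luciferase fused to the PD1 signal peptide plus 10 residues. Structures drawn without stereochemistry were tested as stereoisomer mixtures.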

The test system of data set [2] is TNFα-FL/Gaussia Luciferase. In words: Dox Induced TNFα-FL-Gluc Assay. The settings on record: for pIC50: 24 hr Dox induction, 293FRT/TO cells, mean, read-out: 24 hr Dox Inducible TNFaFLGluc 293FRT/TO: Mean IC50; for 24 hr Dox Inducible TNFaFLGluc 293FRT/TO: TNF/PD1: ratio of TNFaFLGluc IC50 to PD1ssGluc IC50, '<=>' given where both are I.A. Type of data set: cell-based. The procedure, abridged:
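Doxycycline-inducible Gaussia luciferase-tagged full-length TNFα (1-233) was expressed in stable Flp-In 293 T-REx cells. Compounds were co-added with doxycycline and incubated at 37 °C, 5% CO2.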

Data set [3] deals with HER3-ss+4aa/Gaussia Luciferase. Nature of the data set: Dox-Induced Her3-ss-Gluc Assay. Type of data set: cell-based. The settings on record: 24 hr Dox induction; 293FRT/TO cells; mean; read-out: 24 hr Dox Inducible Her3(ss + 4)Gluc 293FRT/TO: Mean IC50. The procedure, abridged:
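Reporter line: Flp-In 293 T-REx, T-REx-regulated HER3-ss+4aa fused to Gaussia luciferase. Compound co-added with doxycycline after overnight plating, 37° C., 5% CO2.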

Data set [4] has as its system IL-2-FL/Gaussia Luciferase. In words: Dox Induced IL2-FL-Gluc Assay. Type of data set: cell-based. The settings on record: for pIC50: 24 hr Dox induction, 293FRT/TO cells, mean, read-out: 24 hr Dox Inducible IL2FLGluc 293FRT/TO: Mean IC50; for 24 hr Dox Inducible IL2FLGluc 293FRT/TO: IL2/PD1: ratio of IL2FLGluc IC50 to PD1ssGluc IC50, '<=>' given where both are I.A. The procedure, abridged:
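Doxycycline induces an IL-2(1-153)–Gaussia luciferase fusion in a stable Flp-In 293 T-REx line. Compound exposure runs alongside induction at 37° C.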

The subject of data set [5] is multiple myeloma cell line NCI-H929. In words: H929 Cell Viability Assay. The settings on record: Homo sapiens, NCI-H929, 48 h, NCI-H929 cells, Celltiter-Glo. Type of data set: cell-based, human. The procedure, abridged: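 Viability is scored by CellTiter-Glo luminescence following a 48-hour treatment at 37° C. Data for structures shown without stereochemistry refer to stereoisomer mixtures.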

For data set [6], the system named is multiple myeloma cell line U266B1. In words: U266 Cell Viability Assay. The settings on record: Homo sapiens, U-266, 48 h, U266B1 cells, Celltiter-Glo. Type of data set: cell-based, human. The procedure, abridged:
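Viability is measured as luciferase signal from CellTiter-Glo following a 48-hour incubation with compound at 37° C. under 5% CO2. Where structures lack drawn stereochemistry, values refer to stereoisomer mixtures.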
On the technique in general: ATP-based viability assays read luminescence as a measure of living cells.

Data set [7] in a line: Liver Microsome Stability Assay (rat). The settings on record: rat liver microsomes, with NADPH, 1.0 uM compound.
Method: (§1) Stability of a compound was assessed in the presence of liver microsomes from various sources—mouse, rat, monkey and human liver microsomes. 1.0 uM compound, 0.4% DMSO in 0.1 M Potassium Phosphate with 1.0 mg/mL liver microsomes, were incubated at 37° C. with or without 1 mM NADPH. The samples were quenched at 0, and 30 minutes.
Data set [8] can be described thus: Liver Microsome Stability Assay (mouse). The settings on record: mouse liver microsomes, with NADPH, 1.0 uM compound.
Method: as §1
Data set [9] in a line: Liver Microsome Stability Assay (human). The settings on record: human liver microsomes, with NADPH, 1.0 uM compound. For orientation: Liver microsomes are a subcellular fraction often used to study metabolism.
Method: as §1
Data set [10] can be described thus: Liver Microsome Stability Assay (monkey). The settings on record: monkey liver microsomes, with NADPH, 1.0 uM compound.
Method: as §1

As a reminder, the pEC50 is −log10 of the EC50, conventionally taken in molar units. Consider `O=C(NC1=NC(/C=C/c2ccccc2)CS1)c1cccn1Cc1ccncc1` (stereo not drawn) [Compound E51], for which the pIC50 in [1], in data set [2], in [3] and in data set [4] was less than 4.60 in each case. Also, the “24 hr Dox Inducible IL2FLGluc 293FRT/TO: IL2/PD1” value in data set [4] came out at 1. The negative-log EC50 (pEC50) in data set [5] and in data set [6] was less than 4.60 in each case. Also, in data set [7], the “Liver Microsome Stability (Multiple Species): Rat - % Remaining after 30 min w/NADPH” value was 0.98%. For the same molecule, the “Liver Microsome Stability (Multiple Species): Mouse - % Remaining after 30 min w/NADPH” value in [8] worked out at 0.08%. In [9], the “Liver Microsome Stability (Multiple Species): Human - % Remaining after 30 min w/NADPH” value was 0.01%. Besides, the “Liver Microsome Stability (Multiple Species): Monkey - % Remaining after 30 min w/NADPH” value in [10] worked out at 0.06%.

In the case of `Cc1ccc(S(=O)(=O)N(C(=O)c2cccn2Cc2ccncc2)c2nc([C@H]3CCCN3S(=O)(=O)c3ccc(C)cc3)cs2)cc1` [Compound E52, (R)-1-(pyridin-4-ylmethyl)-N-tosyl-N-(4-(1-tosylpyrrolidin-2-yl)thiazol-2-yl)-1H-pyrrole-2-carboxamide], the pIC50 in [1], in data set [2], in data set [3] and in [4] was less than 4.60 throughout. Besides, in [4], the “24 hr Dox Inducible IL2FLGluc 293FRT/TO: IL2/PD1” value was 1. For the same molecule, the pEC50 in [5] and in data set [6] was less than 4.60 in each case. Further, in data set [7], the “Liver Microsome Stability (Multiple Species): Rat - % Remaining after 30 min w/NADPH” value is 9.09%. Besides, the “Liver Microsome Stability (Multiple Species): Mouse - % Remaining after 30 min w/NADPH” value in data set [8] was determined as 1.28%. The “Liver Microsome Stability (Multiple Species): Human - % Remaining after 30 min w/NADPH” value in data set [9] amounted to 0.44%. Moreover, in data set [10], the “Liver Microsome Stability (Multiple Species): Monkey - % Remaining after 30 min w/NADPH” value turned out to be 0.32%.

Take `O=C(Nc1ccccn1)c1csc(NC(=O)c2cccn2Cc2ccncc2)n1` [Compound E53]: the pIC50 in data set [1], in data set [2], in data set [3] and in data set [4] was less than 4.60 each time. For the same molecule, in data set [4], the “24 hr Dox Inducible IL2FLGluc 293FRT/TO: IL2/PD1” value came to 1. Moreover, the pEC50 in data set [5] and in data set [6] was less than 4.60 each time. The “Liver Microsome Stability (Multiple Species): Rat - % Remaining after 30 min w/NADPH” value in [7] is 5.58%. Besides, in data set [8], the “Liver Microsome Stability (Multiple Species): Mouse - % Remaining after 30 min w/NADPH” value was 5%. For the same molecule, the “Liver Microsome Stability (Multiple Species): Human - % Remaining after 30 min w/NADPH” value in data set [9] came to 7.99%. Also, in data set [10], the “Liver Microsome Stability (Multiple Species): Monkey - % Remaining after 30 min w/NADPH” value was 2.89%.

In the case of `N#Cc1cnccc1Cn1cccc1C(=O)Nc1nc([C@H]2CCCN2c2ccccc2)cs1` [Compound E59, (R)-1-((3-cyanopyridin-4-yl)methyl)-N-(4-(1-phenylpyrrolidin-2-yl)thiazol-2-yl)-1H-pyrrole-2-carboxamide], the pIC50 in data set [1] was 6.39; in [2] it was 4.90; in data set [3] it was 6.24; in data set [4], 6.03. For the same molecule, the “24 hr Dox Inducible TNFaFLGluc 293FRT/TO: TNF/PD1” value in data set [2] is listed as 30.9. Moreover, in data set [4], the “24 hr Dox Inducible IL2FLGluc 293FRT/TO: IL2/PD1” value worked out at 2.3. Also, the pEC50 was 4.82 in data set [5] and less than 4.60 in [6]. Also, the “Liver Microsome Stability (Multiple Species): Rat - % Remaining after 30 min w/NADPH” value in [7] is given as 0.83%. In addition, in data set [8], the “Liver Microsome Stability (Multiple Species): Mouse - % Remaining after 30 min w/NADPH” value was 0.39%. Moreover, in data set [9], the “Liver Microsome Stability (Multiple Species): Human - % Remaining after 30 min w/NADPH” value was determined as 0.22%. In addition, the “Liver Microsome Stability (Multiple Species): Monkey - % Remaining after 30 min w/NADPH” value in [10] was found to be 0.56%.

For `N#Cc1cc(Cn2cccc2C(=O)Nc2nc([C@H]3CCCN3c3ccccc3)cs2)ccn1` [Compound E60, (R)-1-((2-cyanopyridin-4-yl)methyl)-N-(4-(1-phenylpyrrolidin-2-yl)thiazol-2-yl)-1H-pyrrole-2-carboxamide], the pIC50 in data set [1] is 6.10; in data set [2], less than 4.60; in data set [3], 5.89; in data set [4] it was 5.77. Further, in [2], the “24 hr Dox Inducible TNFaFLGluc 293FRT/TO: TNF/PD1” value was more than 31.2. Further, the “24 hr Dox Inducible IL2FLGluc 293FRT/TO: IL2/PD1” value in data set [4] amounted to 2.1. In addition, the results for the pEC50 in [5] and in data set [6] were 4.63 and less than 4.60, respectively. Besides, in data set [7], the “Liver Microsome Stability (Multiple Species): Rat - % Remaining after 30 min w/NADPH” value came out at 2.04%. Besides, the “Liver Microsome Stability (Multiple Species): Mouse - % Remaining after 30 min w/NADPH” value in data set [8] stood at 6.59%. Further, in data set [9], the “Liver Microsome Stability (Multiple Species): Human - % Remaining after 30 min w/NADPH” value is on record as 1.3%. Besides, in data set [10], the “Liver Microsome Stability (Multiple Species): Monkey - % Remaining after 30 min w/NADPH” value amounted to 0.19%.

Take `Cc1ccc(N2CCC[C@@H]2c2csc(NC(=O)c3cccn3Cc3ccncc3)n2)nc1` [Compound E62, (R)-N-(4-(1-(5-methylpyridin-2-yl)pyrrolidin-2-yl)thiazol-2-yl)-1-(pyridin-4-ylmethyl)-1H-pyrrole-2-carboxamide]: the pIC50 was 8.53 in [1], 7.37 in [2], 8.07 in data set [3] and 8.00 in data set [4]. For the same molecule, in data set [2], the “24 hr Dox Inducible TNFaFLGluc 293FRT/TO: TNF/PD1” value is given as 14.6. The “24 hr Dox Inducible IL2FLGluc 293FRT/TO: IL2/PD1” value in [4] is 3.4. Further, the figures for the pEC50 in data set [5] and in data set [6] were 6.90 and less than 4.60, respectively. In addition, the “Liver Microsome Stability (Multiple Species): Rat - % Remaining after 30 min w/NADPH” value in [7] was 15.4%. Further, the “Liver Microsome Stability (Multiple Species): Mouse - % Remaining after 30 min w/NADPH” value in data set [8] is recorded as 1.51%. For the same molecule, in data set [9], the “Liver Microsome Stability (Multiple Species): Human - % Remaining after 30 min w/NADPH” value is recorded as 0.69%. In addition, the “Liver Microsome Stability (Multiple Species): Monkey - % Remaining after 30 min w/NADPH” value in data set [10] stood at 0.19%.

Regarding `Cc1ccnc(N2CCC[C@@H]2c2csc(NC(=O)c3cccn3Cc3ccncc3)n2)c1` [Compound E63, (R)-N-(4-(1-(4-methylpyridin-2-yl)pyrrolidin-2-yl)thiazol-2-yl)-1-(pyridin-4-ylmethyl)-1H-pyrrole-2-carboxamide], the pIC50 in data set [1] is 7.19; in data set [2], 6.15; in data set [3] it was 7.01; in data set [4], 7.02. In [2], the “24 hr Dox Inducible TNFaFLGluc 293FRT/TO: TNF/PD1” value is 11. In addition, the “24 hr Dox Inducible IL2FLGluc 293FRT/TO: IL2/PD1” value in [4] came to 1.5. Moreover, the pEC50 was 5.53 in data set [5] and less than 4.60 in data set [6]. For the same molecule, the “Liver Microsome Stability (Multiple Species): Rat - % Remaining after 30 min w/NADPH” value in data set [7] was 0.23%. Also, the “Liver Microsome Stability (Multiple Species): Mouse - % Remaining after 30 min w/NADPH” value in [8] stood at 0.72%. For the same molecule, in data set [9], the “Liver Microsome Stability (Multiple Species): Human - % Remaining after 30 min w/NADPH” value is on record as 0.02%. Further, the “Liver Microsome Stability (Multiple Species): Monkey - % Remaining after 30 min w/NADPH” value in [10] stood at 0.32%.

On to `Cc1cccnc1N1CCC[C@@H]1c1csc(NC(=O)c2cccn2Cc2ccncc2)n1` [Compound E64, (R)-N-(4-(1-(3-methylpyridin-2-yl)pyrrolidin-2-yl)thiazol-2-yl)-1-(pyridin-4-ylmethyl)-1H-pyrrole-2-carboxamide], for which the pIC50 in [1] was 7.15; in [2] it was 6.42; in data set [3], 6.97; in data set [4] it was 7.15. Besides, in [2], the “24 hr Dox Inducible TNFaFLGluc 293FRT/TO: TNF/PD1” value was 5.37. Besides, in data set [4], the “24 hr Dox Inducible IL2FLGluc 293FRT/TO: IL2/PD1” value is on record as 1. Besides, the pEC50 was 5.51 in data set [5] and less than 4.60 in data set [6]. In data set [7], the “Liver Microsome Stability (Multiple Species): Rat - % Remaining after 30 min w/NADPH” value amounted to 0.16%. Further, the “Liver Microsome Stability (Multiple Species): Mouse - % Remaining after 30 min w/NADPH” value in data set [8] was 0.21%. Besides, the “Liver Microsome Stability (Multiple Species): Human - % Remaining after 30 min w/NADPH” value in data set [9] came to 6.7%. In addition, the “Liver Microsome Stability (Multiple Species): Monkey - % Remaining after 30 min w/NADPH” value in [10] was 7.11%.
